Drawing on patent publication US5001155A, “β-ionone derivative as antifungal agent” (University of Kentucky Research Foundation, priority 1989, dated 1991), this text covers IC50 and inhibition of germination for six compounds.

Assay [1] relates to Peronospora tabacina sporangia. Put plainly: Inhibition of Sporangial Germination, Variant II (test 3.12). Type of assay: cell-based. The note with it: 1% water agar, 10^6 s/ml, 18° C., 16 hours, read-out: ED50 (the source's name). The method, then: 3.12. Variant II In another in vitro test, the substances (10^2 -10^-8 ppm) were added to 1% water agar and poured into petri dishes. After cooling, the media were inoculated with 100 μl of a suspension of sporangia (10^6 s/ml) and incubated at 18° C. during 16 hours. The germinated sporangia were counted under the microscope.

The test system of assay [2] is P. tabacina conidia. Particulars: Phytochemistry 1972, vol. 11, pp. 2055-2063; cited from earlier work.

Values after ≈ are worked out from the molar mass of the structure shown.

For `CCOCC(=O)O[C@@H]1CC(C)=C(/C=C/C(C)=O)C(C)(C)C1` [3(R)-ethoxyacetoxy-β-ionone], in assay [1], the IC50 was determined as 0.006 ng/mL (≈ 0.0204 nM).
As to `COCC(=O)O[C@@H]1CC(C)=C(/C=C/C(C)=O)C(C)(C)C1` [3(R)-methoxyacetoxy-β-ionone], in assay [1], the IC50 is 8e-05 ng/mL (≈ 0.000285 nM).
The same measure, in the same setting: to `CCCC(=O)O[C@@H]1CC(C)=C(/C=C/C(C)=O)C(C)(C)C1` [3(R)-n-butyroyloxy-β-ionone, 3(R)-butyroyloxy-β-ionone] belongs 2e-05 ng/mL (≈ 7.18e-05 nM).
In the case of `CCCCCC(=O)O[C@@H]1CC(C)=C(/C=C/C(C)=O)C(C)(C)C1` [3(R)-n-hexanoyloxy-β-ionone], in assay [1], the IC50 is 0.05 ng/mL (≈ 0.163 nM).
Take `CC(=O)/C=C/C1=C(C)C[C@@H](OC(=O)C(C)(C)C)CC1(C)C` [3(R)-pivaloyloxy-β-ionone]: the IC50 in assay [1] is 0.001 ng/mL (≈ 0.00342 nM).
With `CC(=O)/C=C/C1=C(C)CC(OC(=O)C(C)C)CC1(C)C` (stereo not drawn) [Quieson, 3-isobutyroyloxy-β-ionone, reference compound], the IC50 in assay [1] was found to be 0.4 ng/mL (≈ 1.44 nM). Moreover, the inhibition of germination entry in assay [2] is on record as “an inhibitor of the germination of P. tabacina conidia”.
